We go through four compounds from patent publication US9261497B2, “Method of treating cancer with modulators of SCFSkp2” (New York University, priority 2012, dated 2016).

For one data set, the system named is MCF-7. The data set can be described thus: Cell cycle FACS analysis, MCF-7. In kind it is cell-based, human. The protocol:
(§1) Whole cell extracts were prepared and immunoblotted as previously described Dorrello et al., “S6K1- and betaTRCP-mediated Degradation of PDCD4 Promotes Protein Translation and Cell Growth,” Science 314:467-471 (2006), which is hereby incorporated by reference in its entirety. For knockdown of Skp2 or p27, shRNAs were induced with 2 ng/ml doxycycline for 48 hours, with the last 16 hours co-treated with 0.1% Vehicle or 10 μM inhibitors as indicated. For cycloheximide chase, cells were pretreated 16 h with 0.1% Vehicle or 10 μM inhibitors, followed by 20 ng/ml cycloheximide (Sigma) and whole cell extracts collected for each time point. 20 ng/ml cycloheximide (Sigma) was added to each plate and whole cell extract was collected for each time point. Scanning densitometry was performed on immunoblots using Image J software. […] 1×10^6 cells were fixed in 70% ethanol for 2 h, treated with 200 μg/ml RNase A (Invitrogen) for 30 minutes, and stained with 20 μg/ml Propidium Iodine (Sigma). All samples were assayed in triplicates. Signal was detected using the Becton Dickson LSRII flow cytometer and cell cycle profiles were analyzed with FloJo.
(In general: In flow cytometry, cells or beads pass a laser one at a time.)

For another data set, the system named is T47D. As to the kind of experiment: Cell cycle FACS analysis, T47D. The data set is classed as cell-based, human. How it is done:
as §1

The test system of a further data set is p27 in primary ECA cells. As to the kind of experiment: p27 immunoblot in primary endometrial carcinoma (ECA) cells. To be noted: 10 μM for 18 h; for Increase of p27 levels over the Vehicle-treated control: grade I, total cell lysates; for Decrease of p27 in the cytoplasm / Increase of nuclear p27: grade II type I. A general note: A western blot detects proteins with antibodies after separation by electrophoresis.

For data set [1], the system named is ECC-1 cells. The data set can be described thus: ECC-1 cell proliferation (MTS assay). To be noted: for Inhibition of cellular proliferation over the Vehicle control: 10 μM (FIG. 13A); for Blocking E2-induced proliferation: compound plus E2 (FIG. 14D). In kind it is cell-based, human.
In data set [2] the test system is p27 in ECC-1 cells. As to the kind of experiment: Cycloheximide p27 half-life in ECC-1 cells. The data set is classed as cell-based, human. The settings on record: 18 h treatment, 20 μM CHX chase, control 3.2 h. How it is done: The endometrial carcinoma cell line (derived from a well-differentiated endometrioid Type I ECA) ECC-1 cells (ATCC, Manassas, Va.) were plated at a density of 3×10^5/well/6-well plate and grown in DMEM:F12 supplemented with 10% FBS (BioWest, Ocala, Fla.). The cell line was passaged in the laboratory for fewer than 6 months after receipt. […] The protocol was approved by The Institutional Review Board of NYU, informed consent was obtained, and the samples were identified and graded by two surgical pathologists and graded according to the WHO (I-III) for decreased glandular structure and nuclear atypia (Silverberg, “Hyperplasia and Carcinoma of the Endometrium,” Semin. Diagn. Pathol. 5:135-153 (1988), which is hereby incorporated by reference in its entirety). ECAs were plated at a density of 2.2×10^6 cells/6-well Primaria® plates (BD Biosciences, San Jose, Calif.) in McCoys 5A media without phenol red containing 10% charcoal-stripped FBS, 2 mM L-Glutamine (Invitrogen) and antimycotic antibiotic solution (Mediatech, Hendon, Va.). ECC-1 cells and primary ECA cells were grown to 70-80% confluence, synchronized in serum-free media for 24 h, treated with 10 […] Skp2E3LIs for 18 h or as indicated in the figures. […] Whole cell lysates were collected at increasing time points (0, 2, 4, 6 h) and 20 μg protein/well analyzed for p27 by immunoblotting.

Data set [3] relates to ECC-1 cells. As to the kind of experiment: ECC-1 cytotoxicity (trypan blue exclusion). In kind it is cell-based. To be noted: 10 μM, 48 h.
For another data set, the system named is Caspase 3 in ECC-1 cells. The data set can be described thus: ECC-1 apoptosis (Caspase 3 cleavage immunoblot). The data set is classed as cell-based, human. To be noted: 10 μM, 18 h. How it is done:
Whole cell lysates were prepared in ice cold RIPA buffer (50 mM Tris-HCL, 150 mM NaCl, 0.25% sodium deoxycholate, 1% NP-40 and 1 mM EDTA) containing 1 mM Na3VO4, pH 7.4) and 1× Protease Inhibitor Cocktail (Sigma Chem, St Louis, Mo.). Following freezing and thawing once, and soluble proteins obtained by centrifugation at 14,000×g for 10 min at 4° C. Protein concentrations were quantified (BCA kit, Thermo Scientific, Rockland, Ill.) and 20 μg protein in Laemmli buffer were subjected to SDS-PAGE (12.5% polyacrylamide) and immunoblotted using anti-p27 and anti-Skp2 antibodies to probe protein levels, as described (Lecanda et al., “TGFbeta Prevents Proteasomal Degradation of the Cyclin-dependent Kinase Inhibitor p27kip1 for Cell Cycle Arrest,” Cell Cycle 8:742-756 (2009), which is hereby incorporated by reference in its entirety). For subcellular fractionation, following treatments, cells were separated into nuclear and cytoplasmic fractions using the NE-PER kit (Thermo Scientific), and 10 μg cytoplasmic and nuclear protein fractions were loaded onto SDS-PAGE for immunoblotting. Following protein transfer onto nitrocellulose membranes, the membrane was blocked with 5% non-fat dry milk in TBS containing 0.1% Tween 20 (TBST) for 1 h, incubated overnight with mouse anti-human p27 (1:1000, Clone 57, BD Transduction Labs) or mouse anti-human p45/Skp2 (1:1000, Clone 8D9, Invitrogen, Grand Island, N.Y.) or rabbit anti-human Caspase-3 antibody (1:500, Clone 8G10, Cell Signaling Technology (Danvers, Mass.)). Purity of the subcellular fractions was confirmed using mouse anti-human α-tubulin (1:10,000, Clone B-5-1-2, Sigma) for cytoplasmic or rabbit anti-human Sp1 (1:1000, Clone H-225, Santa Cruz Biotechnology, Santa Cruz, Calif.) for nuclear fractions. The membranes were incubated with peroxidase-conjugated goat anti-rabbit or goat anti-mouse secondary antibodies in TBST (1:2000; Thermo Scientific).

The subject of data set [4] is p27 in ECC-1 cells. The data set can be described thus: p27 immunoblot in ECC-1 cells (whole cell lysates, nuclear and cytoplasmic fractions). The settings on record: ECC-1; for p27 increase over control at optimal concentration: 10 μM (FIG. 11B); for Nuclear p27 increase over the control in presence of E2: 10 μM compound plus 1 nM E2; for Nuclear p27 increase over the control in presence of E2 / Decrease of cytoplasmic p27 levels: 18 h (FIG. 14C); for p27 protein levels over Vehicle control: 10 μM for 18 h, whole cell lysates (FIG. 11A); for Decrease of cytoplasmic p27 levels: 10 μM; for Increase of nuclear p27 compared to Vehicle control: nuclear fraction (FIG. 11C).
Description: (§2) The endometrial carcinoma cell line (derived from a well-differentiated endometrioid Type I ECA) ECC-1 cells (ATCC, Manassas, Va.) were plated at a density of 3×10^5/well/6-well plate and grown in DMEM:F12 supplemented with 10% FBS (BioWest, Ocala, Fla.). The cell line was passaged in the laboratory for fewer than 6 months after receipt. […] ECAs were plated at a density of 2.2×10^6 cells/6-well Primaria® plates (BD Biosciences, San Jose, Calif.) in McCoys 5A media without phenol red containing 10% charcoal-stripped FBS, 2 mM L-Glutamine (Invitrogen) and antimycotic antibiotic solution (Mediatech, Hendon, Va.).
(§3) For subcellular fractionation, following treatments, cells were separated into nuclear and cytoplasmic fractions using the NE-PER kit (Thermo Scientific), and 10 μg cytoplasmic and nuclear protein fractions were loaded onto SDS-PAGE for immunoblotting. […] The membranes were incubated with peroxidase-conjugated goat anti-rabbit or goat anti-mouse secondary antibodies in TBST (1:2000; Thermo Scientific). […] Protein bands were resolved using the SuperSignal West Dura kit (Thermo Scientific), visualized by exposure to X-ray film (HyBlot; Denville Scientific, Denville, N.J.), and following densitometric scanning (Kodak Logic-100), the protein bands were quantified by normalizing to β-actin and compared to the untreated control, and the values represented by the graphs of relative protein levels compared to actin in each well and shown as % of Vehicle control.

Description for p27 in primary ECA cells: as §2, §3

Take `O=C(O)COc1ccc(Br)cc1C=C1SC(=S)N(Cc2cccnc2)C1=O` [Compound C1]: in the data set on MCF-7 (5 μM C1 for 16 hours), the “Increase in G2-M phase” value was found to be 43% and the “Reduction in G1 phase” value is on record as 35%. In the data set with T47D (5 μM for 16 hours), the G1 phase entry was “an increase in G1 phase” and the S phase result is “a decrease in S phase”.

Take `COC(=O)C1=C(C)N(c2ccc(Br)cc2)C(=O)C1=Cc1ccccc1O` [Compound C2]: in the data set with p27 in primary ECA cells, the “Increase of p27 levels over the Vehicle-treated control” value is listed as 1.9 fold, the “Decrease of p27 in the cytoplasm” value was “approximately 25%” and the “Increase of nuclear p27” value is on record as 67%. In the data set on ECC-1 cells [1], the “Inhibition of cellular proliferation over the Vehicle control” value was 33% and the “Blocking E2-induced proliferation” value is reported as “equal to the effect of blocking ER activation with ICI 182,780”. In the data set on ECC-1 cells [1] (Hillslope method, read-out: EC50 inhibiting proliferation), the EC50 came to 14.3 µM. Besides, the “Extension of p27 half-life over cycloheximide (CHX) control” value in the data set on p27 in ECC-1 cells [2] is reported as 6.1 h. Besides, in the data set with ECC-1 cells [3], the Cytotoxicity entry was “not cytotoxic”. In addition, in the data set on MCF-7, the Cellular phenotype result was “no significant cellular phenotype”. In the data set on Caspase 3 in ECC-1 cells, the “Caspase 3 cleavage (apoptosis)” value was “activate caspase 3 to a similar extent as the control”. Also, in the data set on p27 in ECC-1 cells [4], the “Levels of Skp2” value is reported as “do not effect the levels of Skp2”, the “p27 increase over control at optimal concentration” value was 2.3, the “Nuclear p27 increase over the control in presence of E2” value is approximately 2 fold and the “p27 protein levels over Vehicle control” value is “increase p27 protein levels”. In addition, in the data set on p27 in ECC-1 cells [4], the “Decrease of cytoplasmic p27 levels” value was “approximately 33%”. Moreover, the “Increase of nuclear p27 compared to Vehicle control” value (shortened to “Increase … to Vehicle control”) with p27 in ECC-1 cells [4] (18 h) was found to be 1.8 fold. Further, in the data set on p27 in ECC-1 cells [4] (24 hours, compared to 1 μM Lactacystin), the “Concentration inducing p27 to the same level as the proteasome inhibitor” value is not above 0.1 µM. In the data set with p27 in ECC-1 cells [4] (by 18 h (FIG. 15A)), the “Cytoplasm p27, time course” value was “half” and the “Nuclear p27, time course” value is recorded as “doubled”. Moreover, the Cellular phenotype entry in the data set with T47D was “no significant cellular phenotype”.

On to `O=C(O)COc1ccc(C=C2SC(=O)N(CC(=O)c3ccc(Cl)cc3)C2=O)cc1` [Compound C16], for which, in the data set with ECC-1 cells [3], the Cell death stood at 77%. Moreover, the Cellular phenotype entry with MCF-7 and in the data set on T47D was “no significant cellular phenotype” each time. Besides, the “Caspase 3 cleavage (apoptosis)” value in the data set with Caspase 3 in ECC-1 cells is listed as “shows cleavage of caspase 3”. The “p27 protein levels over Vehicle control” value in the data set on p27 in ECC-1 cells [4] is listed as “increase p27 protein levels”. Besides, the “Increase of cytoplasm p27” value in the data set on p27 in ECC-1 cells [4] (18 h, cytoplasmic fraction (FIG. 11C)) is listed as 2.7 fold. Also, in the data set on p27 in ECC-1 cells [4] (18 h), the “Increase … to Vehicle control” value is reported as 2.2 fold.

Consider `O=C(NN=Cc1cc(Br)cc(Br)c1O)C(=Cc1ccccc1O)NC(=O)c1ccccc1` [Compound C20], for which, in the data set with p27 in primary ECA cells, the “Increase of p27 levels over the Vehicle-treated control” value is recorded as 3 fold, the “Decrease of p27 in the cytoplasm” value is reported as “approximately 25%” and the “Increase of nuclear p27” value is reported as 46%. In the data set with ECC-1 cells [1], the “Inhibition of cellular proliferation over the Vehicle control” value stood at 30% and the “Blocking E2-induced proliferation” value is reported as “equal to the effect of blocking ER activation with ICI 182,780”. In addition, the “Extension of p27 half-life over cycloheximide (CHX) control” value in the data set with p27 in ECC-1 cells [2] is on record as 2.7 h. Further, the Cytotoxicity entry with ECC-1 cells [3] is on record as “not cytotoxic”. Moreover, the Cellular phenotype result in the data set with MCF-7 is “no significant cellular phenotype”. Further, the “Caspase 3 cleavage (apoptosis)” value with Caspase 3 in ECC-1 cells is “activate caspase 3 to a similar extent as the control”. In addition, in the data set with p27 in ECC-1 cells [4], the “Levels of Skp2” value is listed as “do not effect the levels of Skp2”, the “p27 increase over control at optimal concentration” value came to 2.2, the “Nuclear p27 increase over the control in presence of E2” value is given as approximately 2 fold and the “p27 protein levels over Vehicle control” value is on record as “increase p27 protein levels”. Moreover, the “Decrease of cytoplasmic p27 levels” value with p27 in ECC-1 cells [4] was “approximately 33%”. Also, in the data set with p27 in ECC-1 cells [4] (18 h), the “Increase … to Vehicle control” value is recorded as 2.2 fold. For the same compound, the Cellular phenotype result in the data set on T47D is given as “no significant cellular phenotype”.
